Measured values published in ChEMBL document CHEMBL1149334, “Structure of a new cyclic nonapeptide, segetalin F, and vasorelaxant activity of segetalins from Vaccaria segetalis” (Bioorg Med Chem Lett, 2006).
Active and inactive are the calls of the source. No cut-off for these calls is given here. Residues, ends and D or L forms follow the SMILES beside them.

Tests used:
Type in all cases: functional, organism-based
Settings in all cases: Aorta
Rattus norvegicus [1] = species: Rattus norvegicus; assay: Vasorelaxation effect against norepinephrine-induced contraction of rat thoracic aortic ring with endothelium at 100 uM
Rattus norvegicus [2] = species: Rattus norvegicus; assay: Vasorelaxation effect against norepinephrine-induced contraction of rat thoracic aortic ring without endothelium at 100 uM
Rattus norvegicus [3] = species: Rattus norvegicus; assay: Vasocontractile effect on norepinephrine-induced contraction of rat thoracic aortic ring with endothelium at 100 uM
Rattus norvegicus [4] = species: Rattus norvegicus; assay: Vasocontractile effect on norepinephrine-induced contraction of rat thoracic aortic ring without endothelium at 100 uM

Compound | Activity (Rattus norvegicus [1]) | Activity (Rattus norvegicus [2]) | Activity (Rattus norvegicus [3]) | Activity (Rattus norvegicus [4])
CC(C)C[C@@H]1NC(=O)CNC(=O)[C@@H]2CCCN2C(=O)[C@H](Cc2ccccc2)NC(=O)[C@H](C)NC(=O)[C@H](Cc2ccccc2)NC(=O)[C@H](Cc2c[nH]cn2)NC1=O (cyclo(AFPGLHF)) | Active | Active |  | 
CC(C)C[C@@H]1NC(=O)CNC(=O)[C@@H]2CCCN2C(=O)[C@H](Cc2ccccc2)NC(=O)[C@H](C)NC(=O)[C@H](Cc2ccccc2)NC(=O)[C@H](CO)NC1=O (cyclo(AFPGLSF)) | Active | Active |  | 
CC(C)[C@@H]1NC(=O)CNC(=O)[C@H](C)NC(=O)[C@H](Cc2c[nH]c3ccccc23)NC(=O)[C@H](C)NC1=O (cyclo(AGVAW)) | Active |  | Active | Active
CC(C)[C@@H]1NC(=O)CNC(=O)[C@H](C)NC(=O)[C@H](Cc2ccc(O)cc2)NC(=O)[C@H](CCCCN)NC1=O (cyclo(AGVKY)) | Active | Active |  | 
CC(C)[C@@H]1NC(=O)[C@@H]2CCCN2C(=O)[C@H](C(C)C)NC(=O)CNC(=O)[C@H](C)NC(=O)[C@H](Cc2c[nH]c3ccccc23)NC1=O (cyclo(AGVPVW)) | Active | Active |  | 
C[C@@H]1NC(=O)[C@H](CO)NC(=O)[C@H](Cc2ccccc2)NC(=O)[C@@H]2CCCN2C(=O)[C@H](CCCCN)NC(=O)[C@H](CO)NC(=O)[C@H](CO)NC(=O)[C@H](Cc2ccc(O)cc2)NC(=O)[C@H](CO)NC1=O (cyclo(ASYSSKPFS)) | Active | Active |  | 
N=C(N)NCCC[C@@H]1NC(=O)[C@H](Cc2ccc(O)cc2)NC(=O)CNC(=O)[C@H](CO)NC(=O)[C@H](Cc2ccccc2)NC1=O (cyclo(FSGYR)) | Active | Active |  | 
